Reference: article PMC8288134, “Synthesis, potential antitumor activity, cell cycle analysis, and multitarget mechanisms of novel hydrazones incorporating a 4-methylsulfonylbenzene scaffold: a molecular docking study” (Journal of Enzyme Inhibition and Medicinal Chemistry, 2021)

Assays:
[1] = test system: HL-60(TB); parameters: method as in https://dtp.cancer.gov/dtpstandard/dwindex/index.jsp; details: reference drugs, ref https://dtp.cancer.gov/dtpstandard/dwindex/index.jsp; cited from earlier work
[2] = test system: K-562; parameters: method as in https://dtp.cancer.gov/dtpstandard/dwindex/index.jsp; details: reference drugs, ref https://dtp.cancer.gov/dtpstandard/dwindex/index.jsp; cited from earlier work
[3] = test system: NCI-H23; parameters: method as in https://dtp.cancer.gov/dtpstandard/dwindex/index.jsp; details: reference drugs, ref https://dtp.cancer.gov/dtpstandard/dwindex/index.jsp; cited from earlier work
[4] = test system: NCI-H322M; parameters: method as in https://dtp.cancer.gov/dtpstandard/dwindex/index.jsp; details: reference drugs, ref https://dtp.cancer.gov/dtpstandard/dwindex/index.jsp; cited from earlier work
[5] = test system: NCI-H460; parameters: method as in https://dtp.cancer.gov/dtpstandard/dwindex/index.jsp; details: reference drugs, ref https://dtp.cancer.gov/dtpstandard/dwindex/index.jsp; cited from earlier work
[6] = test system: COLO 205; parameters: method as in https://dtp.cancer.gov/dtpstandard/dwindex/index.jsp; details: reference drugs, ref https://dtp.cancer.gov/dtpstandard/dwindex/index.jsp; cited from earlier work
[7] = test system: KM12; parameters: method as in https://dtp.cancer.gov/dtpstandard/dwindex/index.jsp; details: reference drugs, ref https://dtp.cancer.gov/dtpstandard/dwindex/index.jsp; cited from earlier work
[8] = test system: U251; parameters: method as in https://dtp.cancer.gov/dtpstandard/dwindex/index.jsp; details: reference drugs, ref https://dtp.cancer.gov/dtpstandard/dwindex/index.jsp; cited from earlier work
[9] = test system: OVCAR-4; parameters: method as in https://dtp.cancer.gov/dtpstandard/dwindex/index.jsp; details: reference drugs, ref https://dtp.cancer.gov/dtpstandard/dwindex/index.jsp; cited from earlier work
[10] = test system: OVCAR-5; parameters: method as in https://dtp.cancer.gov/dtpstandard/dwindex/index.jsp; details: reference drugs, ref https://dtp.cancer.gov/dtpstandard/dwindex/index.jsp; cited from earlier work
[11] = test system: OVCAR-8; parameters: method as in https://dtp.cancer.gov/dtpstandard/dwindex/index.jsp; details: reference drugs, ref https://dtp.cancer.gov/dtpstandard/dwindex/index.jsp; cited from earlier work
[12] = test system: A498; parameters: method as in https://dtp.cancer.gov/dtpstandard/dwindex/index.jsp; details: reference drugs, ref https://dtp.cancer.gov/dtpstandard/dwindex/index.jsp; cited from earlier work
[13] = test system: CAKI-1; parameters: method as in https://dtp.cancer.gov/dtpstandard/dwindex/index.jsp; details: reference drugs, ref https://dtp.cancer.gov/dtpstandard/dwindex/index.jsp; cited from earlier work
[14] = test system: colon cancer tumour cell lines; details: cited from earlier work; for GI50: read-out: GI50 (subpanel average), reference drugs, ref https://dtp.cancer.gov/dtpstandard/dwindex/index.jsp; for CC50: read-out: LC50 (subpanel average), reference drugs, ref https://dtp.cancer.gov/dtpstandard/dwindex/index.jsp; for TGI (subpanel average): reference drugs, ref https://dtp.cancer.gov/dtpstandard/dwindex/index.jsp
[15] = test system: renal cancer tumour cell lines; details: cited from earlier work; for GI50: read-out: GI50 (subpanel average), reference drugs, ref https://dtp.cancer.gov/dtpstandard/dwindex/index.jsp; for CC50: read-out: LC50 (subpanel average), reference drugs, ref https://dtp.cancer.gov/dtpstandard/dwindex/index.jsp; for TGI (subpanel average): reference drugs, ref https://dtp.cancer.gov/dtpstandard/dwindex/index.jsp
[16] = test system: prostate cancer tumour cell lines; details: cited from earlier work; for GI50: read-out: GI50 (subpanel average), reference drugs, ref https://dtp.cancer.gov/dtpstandard/dwindex/index.jsp; for CC50: read-out: LC50 (subpanel average), reference drugs, ref https://dtp.cancer.gov/dtpstandard/dwindex/index.jsp; for TGI (subpanel average): reference drugs, ref https://dtp.cancer.gov/dtpstandard/dwindex/index.jsp
[17] = test system: full panel of 59 cancer cell lines; details: cited from earlier work; for GI50: read-out: GI50 MG-MID (full panel mean-graph midpoint), reference drugs, ref https://dtp.cancer.gov/dtpstandard/dwindex/index.jsp; for CC50: read-out: LC50 MG-MID (full panel mean-graph midpoint), reference drugs, ref https://dtp.cancer.gov/dtpstandard/dwindex/index.jsp; for TGI MG-MID (full panel mean-graph midpoint): reference drugs, ref https://dtp.cancer.gov/dtpstandard/dwindex/index.jsp
[18] = test system: HCT-15; assay: NCI antitumor screen (SRB); type: cell-based; details: Homo sapiens, one dose 10 µM, read-out: Growth inhibition percentage (GI%)
[19] = test system: KM12; assay: NCI antitumor screen (SRB); type: cell-based; details: Homo sapiens, one dose 10 µM, read-out: Growth inhibition percentage (GI%)
[20] = test system: SW-620; assay: NCI antitumor screen (SRB); type: cell-based; details: Homo sapiens, one dose 10 µM, read-out: Growth inhibition percentage (GI%)
[21] = test system: SNB-75; assay: NCI antitumor screen (SRB); type: cell-based; details: Homo sapiens, one dose 10 µM, read-out: Growth inhibition percentage (GI%)
[22] = test system: NCI/ADR-RES; assay: NCI antitumor screen (SRB); type: cell-based; details: Homo sapiens, one dose 10 µM, read-out: Growth inhibition percentage (GI%)
[23] = test system: SK-OV-3; assay: NCI antitumor screen (SRB); type: cell-based; details: Homo sapiens, one dose 10 µM, read-out: Growth inhibition percentage (GI%)
[24] = test system: A498; assay: NCI antitumor screen (SRB); type: cell-based; details: Homo sapiens, one dose 10 µM, read-out: Growth inhibition percentage (GI%)
[25] = test system: TK-10; assay: NCI antitumor screen (SRB); type: cell-based; details: Homo sapiens, one dose 10 µM, read-out: Growth inhibition percentage (GI%)
[26] = test system: UO-31; assay: NCI antitumor screen (SRB); type: cell-based, human; details: Homo sapiens; UO-31; one dose 10 µM; read-out: Growth inhibition percentage (GI%)
[27] = test system: PC-3; assay: NCI antitumor screen (SRB); type: cell-based; details: Homo sapiens, one dose 10 µM, read-out: Growth inhibition percentage (GI%)
[28] = test system: DU-145; assay: NCI antitumor screen (SRB); type: cell-based; details: Homo sapiens, one dose 10 µM, read-out: Growth inhibition percentage (GI%)
[29] = test system: MDA-MB-231/ATCC; assay: NCI antitumor screen (SRB); type: cell-based; details: Homo sapiens, one dose 10 µM, read-out: Growth inhibition percentage (GI%)

Structure (SMILES)	GI50 [1] [µM]	GI50 [2] [µM]	GI50 [3] [µM]	GI50 [4] [µM]	GI50 [5] [µM]	GI50 [6] [µM]	GI50 [7] [µM]	GI50 [8] [µM]	GI50 [9] [µM]	GI50 [10] [µM]	GI50 [11] [µM]	GI50 [12] [µM]	GI50 [14] [µM]	TGI (subpanel average) [14] [µM]	GI50 [15] [µM]	TGI (subpanel average) [15] [µM]	GI50 [16] [µM]	TGI (subpanel average) [16]	GI50 [17] [µM]	TGI MG-MID (full panel mean-graph midpoint) [17] [µM]	further results
Cc1ccc(-c2cc(C(F)(F)F)nn2-c2ccc(S(N)(=O)=O)cc2)cc1 [Celecoxib, celecoxib]	15.8	10	15.8	19.9	15.8	15.8	15.8	15.8	12.6	19.9	19.9	15.8	20.7	41.39	19.9	41.19	14.2	28.37 µM	17.5	34.0	GI50 [13]: 19.9 µM; CC50 [14]: 66.5 µM; CC50 [15]: 61.2 µM; CC50 [16]: 57 µM; CC50 [17]: 63.3 µM
O=c1[nH]cc(F)c(=O)[nH]1 [Compound 5-Fu, 5-fluorouracil, reference compound]													0.27	51.41	0.93	46.25	1.46	c (Compounds showed values ≥ 100 µM)	0.9	43.4	inhibition at 10 µM [18]: 73.5%; inhibition at 10 µM [19]: 59.3%; inhibition at 10 µM [20]: 49.9%; inhibition at 10 µM [21]: 34.1%; inhibition at 10 µM [22]: 52.4%; inhibition at 10 µM [23]: 22.5%; inhibition at 10 µM [24]: > 100%; inhibition at 10 µM [25]: 33.1%; inhibition at 10 µM [26]: 58.7%; inhibition at 10 µM [27]: 41.8%; inhibition at 10 µM [28]: 64.5%; inhibition at 10 µM [29]: 21.9%; CC50 [14]: 89.3 µM; CC50 [15]: > 100 µM; CC50 [16]: > 100 µM; CC50 [17]: 95.6 µM
COc1cc2ncnc(Nc3ccc(F)c(Cl)c3)c2cc1OCCCN1CCOCC1 [Gefitinib, gefitinib]	1	2.51	2.51	0.063	3.16	7.94	10	3.16		3.98			5.23	18.47	1.41	12.50	3.29	31.62 µM	2.1	14.3	
CNC(=O)c1cc(Oc2ccc(NC(=O)Nc3ccc(Cl)c(C(F)(F)F)c3)cc2)ccn1 [Sorafenib, sorafenib]		3.16	1.99	2.51	2.51	1.99		1.99	3.16	3.16	3.16	2.51	2.19	7.94	2.86	10.86	2.58	10.27 µM	2.33	9.11	GI50 [13]: 3.16 µM; CC50 [14]: 38.1 µM; CC50 [15]: 54.8 µM; CC50 [16]: 69.9 µM; CC50 [17]: 43.1 µM
CS(=O)(=O)c1ccc(C(=O)Nc2ccc(Cl)c(-c3ccccn3)c2)c(Cl)c1 [Vismodegib, vismodegib]	31.6	31.6	50.1	100	39.8	39.8	31.6	50.1	39.8	100	31.6	31.6									GI50 [13]: 79.4 µM
